Patent publication US20260256792A1, “TREATMENT OF CHRONIC SPONTANEOUS URTICARIA BY ADMINISTERING (R)-2-[3-[4-AMINO-3-(2-FLUORO-4-PHENOXY-PHENYL)PYRAZOLO[3,4-D]PYRIMIDIN-1-YL]PIPERIDINE-1-CARBONYL]-4-METHYL-4-[4-(OXETAN-3-YL)PIPERAZIN-1-YL]PENT-2-ENENITRILE” (priority 2023, published 2026)

Test system: moderate-to-severe chronic spontaneous urticaria (CSU)
Assay: Phase 2 CSU study: urticaria activity score over 7 days (UAS7)
Assay type: in vivo, human
Set-up: key to UAS7 Median / UAS7 Change from baseline Median / UAS7 change from baseline, Q1 / UAS7 change from baseline, Q3 / UAS7 change from baseline, Max / UAS7 Change from baseline LS Mean (SE): UAS7 points; daily UAS score ranges 0–6 points/day, over 7 days
From the text: The study comprises a 12 week, randomized, double-blind, placebo-controlled, multi-center, dose-ranging efficacy and safety phase, followed by a 40 week open label extension (OLE) phase (see FIG. 1). The study consists of three phases and an optional OLE phase. […] Clinically, CSU is characterized by the spontaneous and recurrent appearance of pruritic hives. The proposed primary endpoints were the UAS7 at Week 12 in EU and EU reference countries and the ISS7 in the US. Regardless of where a participant was from, all assessments were the same. The UAS7 score is a composite score containing both the HSS7 and the ISS7. This allowed a global assessment of the two key components of urticaria: hives and itch. […] The UAS is a validated PRO measure. […] The daily UAS scores range from 0 to 6 point/day. […] Patients were to complete the UAS using the e-diary. […] The following secondary endpoints were to be analyzed using the same approach as for the primary endpoint: • Change from baseline in UAS7 at Week 4 • Change from baseline in UAS7 at Week 12 (for US and US reference countries) • Change from baseline in ISS7 at Week 12 (except US and US reference countries) • Change from baseline in HSS7 at Week 12 The following responder secondary endpoints were to be analyzed using the Cochran-Mantel-Haenszel test adjusted by region: • Proportion of participants with UAS7<6 at Week 12 • Proportion of participants with UAS7=0 at Week 12 Participants who received selected prohibited medications and/or rescue medications were to be considered as non-responders for time points after the medication usage. For other participants, all available data including those collected during the off-treatment period were to be used to determine the responder/non-responder status. Missing data were to be considered as non-responders.

[1] = ITT Population, 400 mg TID, Week 1
[2] = ITT Population, 400 mg TID, Week 12
[3] = ITT population, 400 mg BID, Week 1
[4] = ITT population, 400 mg BID, Week 3
[5] = ITT population, 400 mg BID, Week 4
[6] = ITT population, 400 mg BID, Week 5
[7] = ITT population, 400 mg BID, Week 6
[8] = ITT population, 400 mg BID, Week 7
[9] = ITT population, 400 mg BID, Week 8
[10] = ITT population, 400 mg BID, Week 9
[11] = ITT population, 400 mg BID, Week 10
[12] = ITT population, 400 mg BID, Week 11
[13] = ITT population, 400 mg BID, Week 12
[14] = ITT population, 400 mg QPM, Week 1

**Q.** Which results are given for `CC(C)(C=C(C#N)C(=O)N1CCC[C@@H](n2nc(-c3ccc(Oc4ccccc4)cc3F)c3c(N)ncnc32)C1)N1CCN(C2COC2)CC1` [rilzabrutinib, (R)-2-[3-[4-amino-3-(2-fluoro-4-phenoxy-phenyl)pyrazolo[3,4-d]pyrimidin-1-yl]piperidine-1-carbonyl]-4-methyl-4-[4-(oxetan-3-yl)piperazin-1-yl]pent-2-enenitrile]?
**A.** UAS7 Post-baseline Mean (SD) (ITT Population, 400 mg QPM, Week 5): 20.58 (9.05); UAS7 % Change difference for rilzabrutinib vs. placebo LS Mean (95% CI) [1]: −29.94%; UAS7 % Change from baseline LS Mean (SE) [1]: −40.18%; UAS7 Change from baseline LS Mean (SE) [1]: −12.72; UAS7 Post-baseline Mean (SD) [1]: 16.95 (10.13); UAS7 % Change difference for rilzabrutinib vs. placebo LS Mean (95% CI) [2]: −26.23%; UAS7 % Change from baseline LS Mean (SE) [2]: −59.16%; UAS7 Change difference for rilzabrutinib vs. placebo LS Mean (95% CI) [2]: −6.76; UAS7 Change from baseline LS Mean (SE) [2]: −17.95; UAS7 % Change difference for rilzabrutinib vs. placebo LS Mean (95% CI) [3]: −23.93%; UAS7 % Change from baseline LS Mean (SE) [3]: −34.18%; UAS7 Change difference for rilzabrutinib vs. placebo LS Mean (95% CI) [3]: −6.18; UAS7 Change from baseline LS Mean (SE) [3]: −10.01; UAS7 Post-baseline Mean (SD) [3]: 19.98 (11.35); UAS7 % Change difference for rilzabrutinib vs. placebo LS Mean (95% CI) [4]: −18.34%; UAS7 % Change from baseline LS Mean (SE) [4]: −39.97%; UAS7 Change difference for rilzabrutinib vs. placebo LS Mean (95% CI) [4]: −4.74; UAS7 Change from baseline LS Mean (SE) [4]: −12.33; UAS7 Post-baseline Mean (SD) [4]: 17.63 (12.02); UAS7 % Change difference for rilzabrutinib vs. placebo LS Mean (95% CI) [5]: −20.76%; UAS7 % Change from baseline LS Mean (SE) [5]: −44.02%; UAS7 Change difference for rilzabrutinib vs. placebo LS Mean (95% CI) [5]: −5.34; UAS7 Change from baseline LS Mean (SE) [5]: −13.41; UAS7 Post-baseline Mean (SD) [5]: 15.62 (12.20); UAS7 % Change difference for rilzabrutinib vs. placebo LS Mean (95% CI) [6]: −10.88%; UAS7 % Change from baseline LS Mean (SE) [6]: −42.67%; UAS7 Change difference for rilzabrutinib vs. placebo LS Mean (95% CI) [6]: −2.61; UAS7 Change from baseline LS Mean (SE) [6]: −12.81; UAS7 Post-baseline Mean (SD) [6]: 16.44 (13.70); UAS7 % Change difference for rilzabrutinib vs. placebo LS Mean (95% CI) [7]: −14.76%; UAS7 % Change from baseline LS Mean (SE) [7]: −41.66%; UAS7 Change difference for rilzabrutinib vs. placebo LS Mean (95% CI) [7]: −3.64; UAS7 Change from baseline LS Mean (SE) [7]: −12.78; UAS7 Post-baseline Mean (SD) [7]: 16.51 (12.98); UAS7 % Change difference for rilzabrutinib vs. placebo LS Mean (95% CI) [8]: −20.46%; UAS7 % Change from baseline LS Mean (SE) [8]: −47.80%; UAS7 Change difference for rilzabrutinib vs. placebo LS Mean (95% CI) [8]: −5.50; UAS7 Change from baseline LS Mean (SE) [8]: −14.56; UAS7 Post-baseline Mean (SD) [8]: 15.04 (12.35); UAS7 % Change difference for rilzabrutinib vs. placebo LS Mean (95% CI) [9]: −21.40%; UAS7 % Change from baseline LS Mean (SE) [9]: −53.24%; UAS7 Change difference for rilzabrutinib vs. placebo LS Mean (95% CI) [9]: −5.61; UAS7 Change from baseline LS Mean (SE) [9]: −15.96; UAS7 Post-baseline Mean (SD) [9]: 13.59 (13.23); UAS7 % Change difference for rilzabrutinib vs. placebo LS Mean (95% CI) [10]: −24.16%; UAS7 % Change from baseline LS Mean (SE) [10]: −52.21%; UAS7 Change difference for rilzabrutinib vs. placebo LS Mean (95% CI) [10]: −5.85; UAS7 Change from baseline LS Mean (SE) [10]: −15.45; UAS7 Post-baseline Mean (SD) [10]: 14.13 (14.43); UAS7 % Change difference for rilzabrutinib vs. placebo LS Mean (95% CI) [11]: −17.60%; UAS7 % Change from baseline LS Mean (SE) [11]: −51.13%; UAS7 Change difference for rilzabrutinib vs. placebo LS Mean (95% CI) [11]: −4.46; UAS7 Change from baseline LS Mean (SE) [11]: −15.36; UAS7 Post-baseline Mean (SD) [11]: 14.82 (14.24); UAS7 % Change difference for rilzabrutinib vs. placebo LS Mean (95% CI) [12]: −19.11%; UAS7 % Change from baseline LS Mean (SE) [12]: −49.87%; UAS7 Change difference for rilzabrutinib vs. placebo LS Mean (95% CI) [12]: −4.55; UAS7 Change from baseline LS Mean (SE) [12]: −14.95; UAS7 Post-baseline Mean (SD) [12]: 14.55 (13.86); UAS7 % Change difference for rilzabrutinib vs. placebo LS Mean (95% CI) [13]: −16.41%; UAS7 % Change from baseline LS Mean (SE) [13]: −49.34%; UAS7 Change difference for rilzabrutinib vs. placebo LS Mean (95% CI) [13]: −3.62; UAS7 Change from baseline LS Mean (SE) [13]: −14.82; UAS7 Post-baseline Mean (SD) [13]: 14.70 (14.29); UAS7 % Change difference for rilzabrutinib vs. placebo LS Mean (95% CI) [14]: −12.22%; UAS7 % Change from baseline LS Mean (SE) [14]: −22.47%
